What was measured:
[1] = tested on: acute experimental autoimmune encephalomyelitis (aEAE); assay: Acute experimental autoimmune encephalomyelitis (aEAE) inhibition; type: in vivo, SJL/N female mice; conditions: for % aEAE Inhibition: percent inhibition of clinical scores compared to saline treated controls
[2] = tested on: foetuses; assay: Teratogenic effects in the rat; type: in vivo; conditions: for % malformed fetuses: day 8 to 14 of pregnancy
[3] = tested on: Beagle Pain Syndrome (BPS); assay: Beagle Pain Syndrome (BPS); type: in vivo; conditions: different breeds of beagle dogs
Protocol: The disease is reflected by clinical and laboratory manifestations justifying BPS as a model for the flu-like syndrome induced by roquinimex in man.
Beagle Pain Syndrome (BPS).
The compounds were administrated intravenously to beagle dogs. The dosage was given for five consecutive days. The dogs were evaluated for clinical and laboratory signs of the pain syndrome, e.g., fever, increased erythrocyte sedimentation rate (ESR), alkaline phosphate (AP), induction of acute phase proteins and vasculitis

What does the source list for `COc1cccc2c1c(O)c(C(=O)N(C)c1ccc(C(F)(F)F)cc1)c(=O)n2C` [Compound A, N-methyl-N-(4-trifluoromethyl-phenyl)-1,2-dihydro-4-hydroxy-5-methoxy-1-methyl-2-oxo-quinoline-3-carboxamide]?
% aEAE Inhibition ([1]; Dose 0.2 mg/kg p.o.): 66%; % aEAE Inhibition ([1]; Dose 1 mg/kg p.o.): 86%; % aEAE Inhibition ([1]; Dose 5 mg/kg p.o.): 99%; % malformed fetuses ([2]; Dose 6 mg/kg p.o.): 4%; % malformed fetuses ([2]; Dose 30 mg/kg p.o.): 2%

For `CN(C(=O)c1c(O)c2c(Cl)cccc2n(C)c1=O)c1ccc(F)cc1F` [Compound B, N-methyl-N-(2,4-difluorophenyl)-1,2-dihydro-4-hydroxy-5-chloro-1-methyl-2-oxo-quinoline-3-carboxamide], which “% aEAE Inhibition” value ([1]; Dose 0.2 mg/kg p.o.) is on record?
Its value is 59%.

What about the “% aEAE Inhibition” value ([1]; Dose 1 mg/kg p.o.) of the same compound?
The value was 96%.

What about the “% aEAE Inhibition” value ([1]; Dose 5 mg/kg p.o.) of the same compound?
Its value is 100%.

And the “% malformed fetuses” value ([2]; Dose 6 mg/kg p.o.)?
The value was 0%.

For `CN(C(=O)c1c(O)c2c(Cl)cccc2n(C)c1=O)c1ccccc1` [Compound C, N-Methyl-N-phenyl-1,2-dihydro-4-hydroxy-5-chloro-1-methyl-2-oxo-quinoline-3-carboxamide], which “% aEAE Inhibition” value ([1]; Dose 0.2 mg/kg p.o.) is on record?
The value was 92%.

And the “% aEAE Inhibition” value ([1]; Dose 1 mg/kg p.o.)?
Its value is 100%.

What about the “% malformed fetuses” value ([2]; Dose 6 mg/kg p.o.) of the same compound?
The value was 37%.

For `CN(C(=O)c1c(O)c2ccccc2n(C)c1=O)c1ccccc1` [Compound D, N-phenyl-N-methyl-1,2-dihydro-4-hydroxy-1-methyl-2-oxo-quinoline-3-carboxamide], which “% aEAE Inhibition” value ([1]; Dose 0.2 mg/kg p.o.) is on record?
The value was 35%.

What about the “% aEAE Inhibition” value ([1]; Dose 1 mg/kg p.o.) of the same compound?
Its value is 40%.

And the “% aEAE Inhibition” value ([1]; Dose 5 mg/kg p.o.)?
Its value is 69%.

What about the “inhibition of acute experimental autoimmune encephalomyelitis (aEAE)” value ([1]; at ≥5 mg/kg, treatment control) of the same compound?
The value was “more than 50%”.

What about the “% malformed fetuses” value ([2]; Dose 10 mg/kg p.o.) of the same compound?
The value was 9%.

And the “% malformed fetuses” value ([2]; Dose 30 mg/kg p.o.)?
The value was 30%.

What about the teratogenic effect ([2]; rat) of the same compound?
Its teratogenic effect is “teratogenic”.

And the “Beagle Pain Syndrome (BPS)” value [3]?
The value was “induce the Beagle Pain Syndrome (BPS)”.
